According to ChEMBL document CHEMBL1201862, “PubChem BioAssay data set” (2004):
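Five concentrations, 48 hours, 96-well plates. GI50 is the concentration that inhibits growth by half.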 Active and inactive are the calls of the source. Cut-off read from the data, not from the text of the source: active = GI50 up to about 1.1 µM and inactive = higher.

How the values were obtained:
Assay in all cases: NCI tumour cell line growth inhibition, 48 h
786-0 = system: 786-0
A498 = system: A498
A549 = system: A549
ACHN = system: ACHN
BT-549 = system: BT-549
CAKI-1 = system: CAKI-1
COLO 205 = system: COLO 205
DU-145 = system: DU-145
EKVX = system: EKVX
HCC 2998 = system: HCC 2998
HCT-116 = system: HCT-116
HCT-15 = system: HCT-15
HOP-62 = system: HOP-62
HOP-92 = system: HOP-92
HT-29 = system: HT-29
Hs-578T = system: Hs-578T
IGROV-1 = system: IGROV-1
KM12 = system: KM12
LOX IMVI = system: LOX IMVI
M14 = system: M14
MCF7 = system: MCF7
MDA-MB-231 = system: MDA-MB-231
MDA-MB-435 = system: MDA-MB-435
MDA-N = system: MDA-N
MOLT-4 = system: MOLT-4
Malme-3M = system: Malme-3M
NCI-H226 = system: NCI-H226
NCI-H23 = system: NCI-H23
NCI-H460 = system: NCI-H460
NCI-H522 = system: NCI-H522
NCI/ADR-RES = system: NCI/ADR-RES
OVCAR-3 = system: OVCAR-3
OVCAR-4 = system: OVCAR-4
OVCAR-5 = system: OVCAR-5
OVCAR-8 = system: OVCAR-8
PC-3 = system: PC-3
RPMI-8226 = system: RPMI-8226
RXF 393 = system: RXF 393
SF-268 = system: SF-268
SF-295 = system: SF-295
SF-539 = system: SF-539
SK-MEL-28 = system: SK-MEL-28
SK-MEL-2 = system: SK-MEL-2
SK-OV-3 = system: SK-OV-3
SN12C = system: SN12C
SNB-19 = system: SNB-19
SNB-75 = system: SNB-75
SW-620 = system: SW-620
T47D = system: T47D
TK-10 = system: TK-10
U-251 = system: U-251
UACC-257 = system: UACC-257
UACC-62 = system: UACC-62
UO-31 = system: UO-31
CCRF-CEM = system: CCRF-CEM
HL-60 = system: HL-60
K562 = system: K562
SK-MEL-5 = system: SK-MEL-5

Measured: GI50

CCCSC1=N/C(=C\c2ccco2)C(=O)N1
inactive: 786-0 > 100 µM | A498 89.7 µM | A549 > 100 µM | ACHN > 100 µM | BT-549 > 100 µM | CAKI-1 > 100 µM | COLO 205 > 100 µM | DU-145 > 100 µM | EKVX 67.3 µM | HCC 2998 > 100 µM | HCT-116 > 100 µM | HOP-62 > 100 µM | HOP-92 > 100 µM | HT-29 > 100 µM | Hs-578T > 100 µM | IGROV-1 > 100 µM | KM12 > 100 µM | LOX IMVI > 100 µM | M14 > 100 µM | MCF7 36 µM | MDA-MB-231 > 100 µM | MDA-MB-435 > 100 µM | MDA-N > 100 µM | MOLT-4 > 100 µM | Malme-3M > 100 µM | NCI-H226 > 100 µM | NCI-H23 > 100 µM | NCI-H460 > 100 µM | NCI-H522 > 100 µM | NCI/ADR-RES > 100 µM | OVCAR-3 > 100 µM | OVCAR-4 > 100 µM | OVCAR-5 > 100 µM | OVCAR-8 > 100 µM | PC-3 > 100 µM | RPMI-8226 > 100 µM | RXF 393 > 100 µM | SF-268 > 100 µM | SF-295 > 100 µM | SF-539 > 100 µM | SK-MEL-28 > 100 µM | SK-MEL-2 > 100 µM | SK-OV-3 > 100 µM | SN12C > 100 µM | SNB-19 > 100 µM | SNB-75 97.7 µM | SW-620 > 100 µM | T47D 46.2 µM | TK-10 > 100 µM | U-251 > 100 µM | UACC-257 > 100 µM | UACC-62 > 100 µM | UO-31 > 100 µM
> 100 µM: HCT-15

O=C(OCc1ccc([N+](=O)[O-])cc1)N1c2ccccc2[C@@]23O[C@]24CCC[C@H]3C#C/C=C\C#C[C@H]14
89.1 µM: HCT-15
inactive: 786-0 > 100 µM | A498 > 100 µM | A549 8.77 µM | ACHN 78.9 µM | BT-549 > 100 µM | CAKI-1 37.4 µM | CCRF-CEM 12.9 µM | COLO 205 65.6 µM | DU-145 > 100 µM | EKVX > 100 µM | HCC 2998 > 100 µM | HCT-116 > 100 µM | HL-60 25 µM | HOP-92 > 100 µM | HT-29 > 100 µM | Hs-578T 58.9 µM | IGROV-1 > 100 µM | K562 88.1 µM | KM12 > 100 µM | LOX IMVI 56.5 µM | M14 > 100 µM | MCF7 8.18 µM | MDA-MB-231 > 100 µM | MDA-MB-435 > 100 µM | MDA-N > 100 µM | MOLT-4 3.27 µM | Malme-3M 19.6 µM | NCI-H226 > 100 µM | NCI-H23 > 100 µM | NCI-H460 1.17 µM | NCI-H522 25.8 µM | NCI/ADR-RES 43.6 µM | OVCAR-3 > 100 µM | OVCAR-4 > 100 µM | OVCAR-5 > 100 µM | OVCAR-8 > 100 µM | PC-3 > 100 µM | RXF 393 > 100 µM | SF-268 38.6 µM | SF-295 > 100 µM | SF-539 > 100 µM | SK-MEL-28 > 100 µM | SK-MEL-2 > 100 µM | SK-MEL-5 > 100 µM | SK-OV-3 > 100 µM | SN12C > 100 µM | SNB-19 > 100 µM | SW-620 72.9 µM | T47D > 100 µM | TK-10 > 100 µM | U-251 > 100 µM | UACC-257 > 100 µM | UACC-62 > 100 µM | UO-31 > 100 µM
